The EC50 is the midpoint of the concentration-response curve.

Assay [1] relates to leukaemic stem cell compartment (Lin-/CD34+/CD38-/CD123+) within the KG1a cell line. Nature of the assay: Immunophenotypic identification of the leukaemic stem cell compartment. Type of assay: cell-based. The conditions noted are these: 72 h, LSC phenotype as percentage of all viable cells left, Control: 4%. The procedure: A further comparative analysis of the toxicity of compounds in the KG1a cell line over an extended dose range was carried out, and the relative effect assessed of the compounds on the leukaemic stem cell compartment within the KG1a cell line, across the entire dose range. Thus, experimental tests were performed on certain compounds of the present invention to assess their ability to target cancer stem cells in a leukaemic cell line. The acute myeloid leukaemia (AML) cell line, KG1a, was employed to assess the relative effect of compounds on the stem cell compartment. The KG1a cell line was selected because it manifests a minor stem cell-like compartment with a distinct immunophenotype (Lin^−/CD34^+/CD38^−/CD123^+).
(§1) Cells of the KG1a cell line were maintained in RPMI medium (Invitrogen, Paisley, UK) supplemented with 100 units/ml penicillin, 100 μg/ml streptomycin and 20% foetal calf serum. Cells were subsequently aliquoted (10^5 cells/100 μl) into 96-well plates and were incubated at 37° C. in a humidified 5% carbon dioxide atmosphere for 72 h in the presence of nucleoside analogues and their respective phosphoramidates at concentrations that were experimentally determined for each series of compounds. In addition, control cultures were carried out to which no drug was added. Cells were subsequently harvested by centrifugation and were analyzed by flow cytometry using the Annexin V assay.
KG1a cells were cultured for 72 h in the presence of a wide range of concentrations of each compound assayed. Cells were then harvested and labelled with a cocktail of anti-lineage antibodies (PE-cy7), anti-CD34 (FITC), anti-CD38 (PE) and anti-CD123 (PERCP cy5). The sub-population expressing a leukaemic stem cell (LSC) phenotype were subsequently identified and were expressed as a percentage of all viable cells left in the culture. […]

Another assay concerns KG1a cell line. Nature of the assay: Annexin V/propidium iodide apoptosis assay. It is filed as cell-based. The conditions noted are these: 72 h, dose required to kill 50% of the cells. The protocol:
as §1
Measurement of in vitro apoptosis. Cultured cells were harvested by centrifugation and then resuspended in 195 μl of calcium-rich buffer. Subsequently, 5 μl of Annexin V (Caltag Medsystems, Botolph Claydon, UK) was added to the cell suspension and cells were incubated in the dark for 10 mins prior to washing. Cells were finally resuspended in 190 μl of calcium-rich buffer together with 10 μl of propidium iodide. Apoptosis was assessed by dual-colour immunofluorescent flow cytometry as described previously. Subsequently LD50 values (the dose required to kill 50% of the cells in a culture) were calculated for each nucleoside analogue and phosphoramidate.
The data obtained in these experiments were evaluated using one way ANOVA. All data was confirmed as Gaussian or a Gaussian approximation using the omnibus K2 test. LD50 values were calculated from the non-linear regression and line of best-fit analysis of the sigmoidal dose-response curves. All statistical analyses were performed using Graphpad Prism 6.0 software (Graphpad Software Inc., San Diego, Calif.).

The next assay has as its system MCF7. Put plainly: Cytostatic activity, cell counting (Coulter counter). It is filed as cell-based. The conditions noted are these: Homo sapiens, MCF7; uninfected, 72 h proliferation; read-out: IC50 MCF7. From the text:
(§2) Tumor cell cultures were infected with M. hyorhinis (ATCC 17981) and after two or more passages (to avoid bias by the initial inoculum) successful infection was confirmed using the MycoAlert™ mycoplasma detection kit (Lonza, Basel, Switzerland). Although this assay is only semi-quantitative, a maximal infection was observed 3 to 4 days after subcultivation of the mycoplasma-exposed cells. Chronically infected tumor cell lines are further referred to as Cell line.Hyor. All tumor cell cultures were maintained in Dulbecco's modified Eagle's medium (DMEM) (Invitrogen) supplemented with 10% fetal bovine serum (Biochrom AG, Berlin, Germany), 10 mm HEPES, and 1 mm sodium pyruvate (Invitrogen). Cells were grown at 37° C. in a humidified incubator with a gas phase containing 5% CO2.
(§3) The cytostatic activity of the test compounds was examined in mycoplasma-infected and uninfected cancer cell lines. When assaying the effect of M. hyorhinis infection, monolayer MCF7 and MCF7.Hyor cells were seeded in 48-well microtiter plates (Nunc™, Roskilde, Denmark) at 10,000 cells/well (Corning Inc., Corning, N.Y.) […]. After 24 h, the cells were exposed to different concentrations of test compound and allowed to proliferate for 72 h (to ensure sufficient cell proliferation and mycoplasma growth) after which the cells were trypsinized and counted using a Coulter counter (Analis, Suarlée, Belgium). Suspension cells (L1210, L1210.Hyor, FM3A, and FM3A.Hyor) were seeded in 96-well microtiter plates (Nunc) at 60,000 cells/well in the presence of different concentrations of test compound. The cells were allowed to proliferate for 48 h and then counted using a Coulter counter. The 50% inhibitory concentration (IC50) was defined as the compound concentration required to reduce cell proliferation by 50%.

The test system of a further assay is L1210. The description is as above. It is filed as cell-based. The conditions noted are these: Mus musculus, L1210; uninfected, 48 h proliferation; read-out: IC50 L1210.
Source text: as §2, §3

Assay [2] deals with Z-138 Mantle cell lymphoma. Put plainly: In vitro viability assay, CellTiterGlo. Type of assay: cell-based. The conditions noted are these: Z-138, CellTiterGlo, 72 h. In outline: (§4)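 Cells were treated for ~72 h with a 9-point, 3.16-fold dilution series, 198 μM to 19.9 nM final, in 0.5% DMSO final, in duplicate. Viability was read by CellTiterGlo luminescence.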
Assay [3] concerns RL Non-Hodgkin's lymphoma. Put plainly: In vitro viability assay, CellTiterGlo. It is filed as cell-based. Particulars: CellTiterGlo, 72 h. In outline:
as §4
In general terms: ATP-based viability assays read luminescence as a measure of living cells.

Assay [4] deals with HEL92.1.7 Erythroleukaemia. Put plainly: In vitro viability assay, CellTiterGlo. The conditions noted are these: HEL92.1.7, CellTiterGlo, 72 h. It is filed as cell-based. The method in brief:
as §4

Assay [5] concerns MCF7 cells infected with Mycoplasma hyorhnis (HYOR). Put plainly: Cytostatic activity in mycoplasma-infected cells. Type of assay: cell-based, human.
Source text: as §2, §3

For assay [6], the system named is L1210 cells infected with Mycoplasma hyorhinis (HYOR). Nature of the assay: Cytostatic activity in mycoplasma-infected cells. Type of assay: cell-based, mouse.
Source text: as §2, §3

The mark [7] stands for this setting: Homo sapiens, read-out: EC50 (μM) Ab.

Structures are written as SMILES.

As to `Nc1nc(Cl)nc2c1ncn2[C@H]1C[C@H](O)[C@@H](CO)O1` [Cladribine, cladribine, reference compound], the Stem cell % in [1] is 6%. The LD50 in the assay on KG1a cell line worked out at 0.18 μm. The IC50 with MCF7 was determined as 370 nM; with L1210, 400 nM; in assay [5] (Homo sapiens, MCF7, 72 h, read-out: IC50 MCF7/HYOR), 9300 nM; in [6] (Mus musculus, L1210, 48 h, read-out: IC50 L1210/HYOR) it was 3000 nM. For the same molecule, the EC50 in assay [2] (setting [7]) was less than 0.019 µM; in [3] (setting [7]), less than 0.019 µM; in assay [4] (Homo sapiens, HEL 92.1.7, read-out: EC50 (μM) Ab), less than 0.019 µM. Besides, the “Top Inhibition (%)” value came out at 99.7% in [2], 94.7% in [3] and 97.4% in assay [4]. In addition, the Loss of potency in assay [5] (MCF7/HYOR versus MCF7) is 25-fold; in assay [6] (L1210/HYOR versus L1210), 8-fold.

The record behind these values is patent publication US10906929B2, “Phosphoramidate nucleoside derivatives as anticancer agents” (NuCana plc, priority 2016, dated 2021).
